Laboratory results taken from publication PMC1977926, “Human pancreatic cancer cell lines do not express receptors for somatostatin” (British Journal of Cancer, 1992).
Blank lines part the entries; values can stand above or below the compound they belong to. Bridge positions count the residues as written; N and C are the ends. Square brackets hold non-standard residues; d marks the D form. Peptide text beside a SMILES is read from it. Tyr(3-I) = N[C@@H](Cc1ccc(O)c(I)c1)C(=O)O

What was measured:
[1] = molecular target: T1, somatostatin receptors (AR42J membranes) (Rattus norvegicus, UniProt P30680); experiment: Displacement binding, 125I-SS, AR42J membranes; details: 125I-SS 0.5 nM, 1 h at 30 C
T1 construct: endogenous in cells; host or cells: AR42J rat pancreatic acinar tumour cell line (membrane preparation)
T1 sequence (P30680 whole entry): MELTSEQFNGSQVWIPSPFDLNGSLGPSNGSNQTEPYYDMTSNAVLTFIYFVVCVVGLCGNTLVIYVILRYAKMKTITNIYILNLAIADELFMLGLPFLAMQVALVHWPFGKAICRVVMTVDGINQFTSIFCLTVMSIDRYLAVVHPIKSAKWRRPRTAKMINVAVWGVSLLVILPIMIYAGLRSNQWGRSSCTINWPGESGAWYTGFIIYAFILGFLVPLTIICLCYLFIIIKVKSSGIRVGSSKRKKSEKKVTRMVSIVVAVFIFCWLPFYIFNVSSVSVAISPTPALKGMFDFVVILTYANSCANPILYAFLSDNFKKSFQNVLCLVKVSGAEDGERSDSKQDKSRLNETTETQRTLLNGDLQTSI
From the text: (§1) Br. J. Cancer (1992), 66, 483 487 ? […] Somatostatin (SS) is a tetradecapeptide widely distributed throughout the body, being found in high concentrations in the brain, stomach, intestine and pancreas (Reichlin, 1983). Somatostatin exerts inhibitory actions on the cellular func- tions within a variety of tissues including secretion and growth (Konturek et al., 1988; Meyers & Coy, 1980; Schally, 1988). […] It has therefore been proposed that somatostatin may be capable of inhibiting pancreatic tumour growth indirectly via the suppression of secretion of pancreatic trophic hor- mones and/or by direct effects on the tumour itself (Schally et al., 1988; Liebow et al., 1989). […] For somatostatin to impair directly the growth of pancreatic cancer the cells should therefore express receptors for the peptide. The aim of these study was to determine the somatostatin receptor status of two human (MiaPaCa-2 & Panc-1) and a rat (AR42J) pancreatic cancer cell lines. […] DNA synthesis was assessed for the final 6 h by adding 0.5 liCi 3H-thymi- dine/well. […] Scin- tillation fluid was added to individual filter discs and the cell associated radioactivity counted in a beta counter (Packard 1900CA Tricarb). […] The protein content of the suspension was determined using a bicinchoninic acid kit (Pierce, Rockford, USA).

[2] = tested on: somatostatin receptors (Panc-1 membranes); experiment: Displacement binding, 125I-SS, Panc-1 membranes; parameters: species or system human; details: 125I-SS 0.5 nM, unlabelled RC-160 10-6 to 10-11 M, 1 h at 30 C
From the text: as §1

[3] = tested on: somatostatin receptors (MiaPaCa-2 membranes); experiment: Displacement binding, 125I-SS, MiaPaCa-2 membranes; parameters: species or system human; details: 125I-SS 0.5 nM, unlabelled RC-160 10-6 to 10-11 M, 1 h at 30 C
From the text: as §1

[4] = molecular target: T1, somatostatin receptors (AR42J membranes); experiment: Saturation binding, 125I-SS, AR42J membranes; details: 125I-SS 0.05-1 nM, 2 h at 30 C, single class of high affinity binding sites (abstract)
From the text: as §1

[5] = tested on: MiaPaCa-2 human ductal pancreatic carcinoma cell line; experiment: Proliferation of MiaPaCa-2 (3H-thymidine incorporation); format: cell-based; details: three experiments, five determinations; for Stimulation of growth of MiaPaCa-2: serum free medium, 3H-thymidine incorporation, P<0.01 compared to untreated cells
From the text: (§2) Br. J. Cancer (1992), 66, 483 487 ? […] Somatostatin (SS) is a tetradecapeptide widely distributed throughout the body, being found in high concentrations in the brain, stomach, intestine and pancreas (Reichlin, 1983). Somatostatin exerts inhibitory actions on the cellular func- tions within a variety of tissues including secretion and growth (Konturek et al., 1988; Meyers & Coy, 1980; Schally, 1988). […] It has therefore been proposed that somatostatin may be capable of inhibiting pancreatic tumour growth indirectly via the suppression of secretion of pancreatic trophic hor- mones and/or by direct effects on the tumour itself (Schally et al., 1988; Liebow et al., 1989). […] For somatostatin to impair directly the growth of pancreatic cancer the cells should therefore express receptors for the peptide. The aim of these study was to determine the somatostatin receptor status of two human (MiaPaCa-2 & Panc-1) and a rat (AR42J) pancreatic cancer cell lines. We have also studied the effects of somatostatin-14 and RC-160 on the proliferation of these three cell lines. Materials and methods Cell growth MiaPaCa-2 and Panc-1 are both human ductal pancreatic carcinoma cell lines and were obtained from the European Cell Culture Collection. AR42J is a rat pancreatic acinar tumour cell line and was kindly provided by Dr S. Watson (Cancer Research Campaign Laboratories, Nottingham Uni- versity). MiaPaCa-2 and Panc-l were routinely grown in Dulbecco's Modified Eagle's Medium (DMEM) containing 10% foetal calf serum (ICN Flow, Irvine). AR42J cells were grown in RPMI 1640 containing 10% FCS (ICN Flow, Irvine). The cells were trypsinised and plated out in 96 well plates at 5 x I04 cells ml-' in serum-free (SF) medium for 24 h. After this period of serum starvation the medium was supple- mented with EGF (Sigma, Dorset) or IGF-I (Peninsula, St Helens) with or without SS-14 (Sigma, Dorset) or RC-160 (Peninsula, St Helens). EGF, IGF-1, SS-14 and RC-160 were added at concentrations described in the Results section. The cells were then incubated for 48 h at 37?C. DNA synthesis was assessed for the final 6 h by adding 0.5 liCi 3H-thymi- dine/well. The cells were then collected onto filter mats using a semi-automatic cell harvester (Inotech, Switzerland). Scin- tillation fluid was added to individual filter discs and the cell associated radioactivity counted in a beta counter (Packard 1900CA Tricarb). Binding studies Binding of ['25I-tyr"]Somatostatin (Amersham International) was performed on membranes prepared from the three cell lines. Cells were washed twice with phosphate buffered saline (pH 7.4), then removed from 150 cm2 flasks using a cell scraper. […] The protein content of the suspension was determined using a bicinchoninic acid kit (Pierce, Rockford, USA).

[6] = tested on: Panc-1 human ductal pancreatic carcinoma cell line; experiment: Proliferation of Panc-1 (3H-thymidine incorporation); format: cell-based; details: 48 h, three experiments, five determinations; for Stimulation of growth of Panc-1: serum free medium, 3H-thymidine incorporation, P<0.01 compared to untreated cells
From the text: as §2

[7] = tested on: rat experimental pancreatic cancer; details: ref Redding et al. (1984); cited from earlier work
From the text: (§3) Br. J. Cancer (1992), 66, 483 487 ? […] Summary The in vivo administration of somatostatin (SS) or its analogues is capable of suppressing the growth of pancreatic cancer in experimental animals. We examined the effects of SS-14 and its analogue RC-160 on the in vitro growth of ...

EGF receptor = details: ref Hierowski et al., 1985; cited from earlier work
From the text: as §3

[8] = tested on: pancreatic exocrine secretion of protein and bicarbonate; details: ref Boden et al., 1975; cited from earlier work
From the text: as §3

[9] = tested on: endocrine secretion of cholecystokinin, gastrin and secretin; details: ref Schally et al., 1978; cited from earlier work
From the text: as §3

[10] = tested on: somatostatin binding sites in human pancreatic cancer xenograft; details: ref Singh and colleagues (1991); cited from earlier work
From the text: as §3

Panc-1 = details: unstimulated cells, serum-free medium, one concentration; ref Liehr et al., 1990; cited from earlier work
From the text: as §3

[11] = tested on: tyrosine phosphatase activity; details: in vitro, MiaPaCa-2; ref Liebow et al., 1989; cited from earlier work
From the text: as §3

[12] = tested on: somatostatin receptors in human pancreatic adenocarcinomas; details: 12 fresh adenocarcinomas; ref Reubi et al. (1988); cited from earlier work
From the text: as §3

[13] = tested on: somatostatin receptors on MiaPaCa-2; details: no Kd quoted, no total or non-specific binding curves; ref Hierowski et al. (1985); cited from earlier work
From the text: as §3

MiaPaCa-2 = details: cited from earlier work
From the text: as §3

[14] = tested on: hamster experimental pancreatic cancer; details: ref Redding et al. (1984); cited from earlier work
From the text: as §3

Displacement of radiolabelled somatostatin from AR42J membranes ([1]; unlabelled RC-160 10-6 to 10-11 M, 50 mM Tris, 0.2% BSA, filtration): 95% | IC50 ([1]; competition, AR42J membranes, non-linear regression): 0.631 nM
Compound: CC(C)[C@@H]1NC(=O)[C@H](CCCCN)NC(=O)[C@@H](Cc2c[nH]c3ccccc23)NC(=O)[C@H](Cc2ccc(O)cc2)NC(=O)[C@@H](NC(=O)[C@H](N)Cc2ccccc2)CSSC[C@@H](C(=O)N[C@@H](Cc2c[nH]c3ccccc23)C(N)=O)NC1=O [RC-160] (H-[dF]CY[dW]KVCW-NH2; disulfide 2-7)

Displaceable binding, Panc-1 [2]: not displaceable binding was observed | Displaceable binding, MiaPaCa-2 [3]: not displaceable binding was observed | Bmax [4]: 2.1 +/- 0.26 pmoles mg-1 protein
Compound: C[C@H](N)C(=O)NCC(=O)N[C@H]1CSSC[C@@H](C(=O)O)NC(=O)[C@H](CO)NC(=O)[C@H]([C@@H](C)O)NC(=O)[C@H](Cc2ccc(O)c(I)c2)NC(=O)[C@H]([C@@H](C)O)NC(=O)[C@H](CCCCN)NC(=O)[C@H](Cc2c[nH]c3ccccc23)NC(=O)[C@H](Cc2ccccc2)NC(=O)[C@H](Cc2ccccc2)NC(=O)[C@H](CC(N)=O)NC(=O)[C@H](CCCCN)NC1=O [125I-Tyr11 somatostatin] (H-AGCKNFFWKT[Tyr(3-I)]TSC-OH; disulfide 3-14 (inferred); N-terminus and C-terminus assumed)

Compound: epidermal growth factor [EGF, epidermal growth factor (Sigma, Dorset)]
Stimulation of growth of MiaPaCa-2 ([5]; 48 h): stimulated the growth of both cell lines (P<0.01 compared to untreated cells), having a more pronounced effect on MiaPaCa-2 | Stimulation of growth of Panc-1 [6]: stimulated the growth of both cell lines (P<0.01 compared to untreated cells)

Compound: insulin-like growth factor 1 [IGF-1]
Stimulation of growth of MiaPaCa-2 ([5]; 48 h): increased the proliferation of the two cell lines (P<0.01 compared to untreated cells) | Stimulation of growth of Panc-1 [6]: increased the proliferation of the two cell lines (P<0.01 compared to untreated cells)

Compound: SS-14: Somatostatin (SS) is a tetradecapeptide; SS-14 from Sigma, Dorset
Effect on DNA synthesis in EGF stimulated MiaPaCa-2 cells ([5]; EGF 10^-8 M, serum free DMEM, 48 h at 37 C, 3H-thymidine for final 6 h, P>0.05 compared to stimulated cells): neither SS-14 nor RC-160 had any effect on DNA synthesis | Effect on DNA synthesis in IGF-1 stimulated MiaPaCa-2 cells ([5]; IGF-1 10^-8 M, serum free, 48 h, 3H-thymidine for final 6 h, P>0.05 compared to stimulated cells): neither SS-14 nor RC-160 had any effect on DNA synthesis | Effect on DNA synthesis in EGF stimulated Panc-1 cells ([6]; EGF 10^-8 M, serum free, 3H-thymidine for final 6 h, P>0.05 compared to stimulated cells): neither SS-14 nor RC-160 had any effect on DNA synthesis | Effect on DNA synthesis in IGF-1 stimulated Panc-1 cells ([6]; IGF-1 10^-8 M, serum free, 3H-thymidine for final 6 h, P>0.05 compared to stimulated cells): neither SS-14 nor RC-160 had any effect on DNA synthesis | Inhibition of rat experimental pancreatic cancer growth [7]: inhibition of both rat and hamster experimental pancreatic cancer growth | Dephosphorylation of the EGF receptor (EGF receptor): causes the dephosphorylation of the EGF receptor | Inhibition of pancreatic exocrine secretion [8]: inhibits the pancreatic exocrine secretion of protein and bicarbonate | Inhibition of endocrine secretion of cholecystokinin, gastrin and secretin [9]: inhibits the pancreatic exocrine secretion of protein and bicarbonate (Boden et al., 1975) and the endocrine secretion of cholecystokinin, gastrin and secretin | Specific binding sites in human pancreatic cancer xenograft [10]: one of these xenografts expressed specific binding sites | Growth inhibitory effect, Panc-1 (Panc-1): no growth inhibitory effect | Promotion of tyrosine phosphatase activity [11]: promotion of tyrosine phosphatase activity | Specific somatostatin receptors in fresh human pancreatic adenocarcinomas [12]: none of which contained specific somatostatin receptors | Bmax, MiaPaCa-2 [13]: 3.6 fmole mg-' protein | Inhibition of EGF-stimulated growth of MiaPaCa-2 (MiaPaCa-2; in vitro, ref Liebow et al. (1986; 1989)): all inhibit the EGF- stimulated growth of MiaPaCa-2 | Growth inhibitory effect, MiaPaCa-2 (MiaPaCa-2; unstimulated cells, serum-free medium, one concentration, ref Liehr et al., 1990): no growth inhibitory effect | Inhibition of hamster experimental pancreatic cancer growth [14]: inhibition of both rat and hamster experimental pancreatic cancer growth
